Results from patent publication US20090233937A1 (TAKEDA PHARMACEUTICAL COMPANY LIMITED, priority 2008, published 2009).

tested on: human breast cancer cell BT-474; test: Inhibitory action on breast cancer cell BT-474 proliferation in vitro; assay type: cell-based; settings: 120 h, BT-474 cells, cultured for 5 days with compound, SRB dye protein content
Protocol: A suspension of human breast cancer cell BT-474 (100 μl (6,000 cells)) were plated in a 96-well microplate and cultured in an incubator (37° C., 5% carbon dioxide). On the following day, 100 μl of a solution of each test compound previously diluted serially in 2-fold, was added, and the cells were cultured for 5 days. After the culture medium containing the test compound was removed, the cells were washed and fixed with 50% trichloroacetic acid, after which a 0.4% (w/v) SRB dye solution (dissolved in 1% acetic acid) was added to stain as well as fix the cell protein (Skehan et al., Journal of the National Cancer Institute, Vol. 82, pp. 1107-1112, 1990). After washing with a 1% acetic acid solution, 100 μl of extract solution (10 mM, Tris buffer) was added to extract the dye and the absorbance was measured at a wavelength of 550 nm to quantify the amount of cells as protein content.

| SMILES | IC50 |
| --- | --- |
| OCCn1ccc2ncnc(Nc3ccc(Oc4cccc5sncc45)c(Cl)c3)c21 [Example 3, 2-(4-{[4-(1,2-benzoisothiazol-4-yloxy)-3-chlorophenyl]amino}-5H-pyrrolo[3,2-d]pyrimidin-5-yl)ethanol] | < 100 nM |
| CC(=O)NCCn1ccc2ncnc(Nc3ccc(Oc4cccc5sncc45)c(Cl)c3)c21 [Example 7, N-[2-(4-{[4-(1,2-benzoisothiazol-4-yloxy)-3-chlorophenyl]amino}-5H-pyrrolo[3,2-d]pyrimidin-5-yl)ethyl]acetamide methanesulfonate] | < 100 nM |
| CC(C)(CO)C(=O)NCCn1ccc2ncnc(Nc3ccc(Oc4cccc5sncc45)c(F)c3)c21 [Example 11, N-[2-(4-{[4-(1,2-benzoisothiazol-4-yloxy)-3-fluorophenyl]amino}-5H-pyrrolo[3,2-d]pyrimidin-5-yl)ethyl]-3-hydroxy-2,2-dimethylpropanamide] | < 100 nM |
| Cc1cc(Nc2ncnc3ccn(CCNC(=O)C(C)(C)CO)c23)ccc1Oc1cccc2sncc12 [Example 39, N-[2-(4-{[4-(1,2-benzoisothiazol-4-yloxy)-3-methylphenyl]amino}-5H-pyrrolo[3,2-d]pyrimidin-5-yl)ethyl]-3-hydroxy-2,2-dimethylpropanamide] | < 100 nM |
| CC(C)(N)C(=O)NCCn1ccc2ncnc(Nc3ccc(Oc4cccc5sncc45)c(Cl)c3)c21 [Example 53, N-[2-(4-{[4-(1,2-benzoisothiazol-4-yloxy)-3-chlorophenyl]amino}-5H-pyrrolo[3,2-d]pyrimidin-5-yl)ethyl]-2-methylalaninamide dimethanesulfonate] | < 100 nM |
| CC(C)NC(=O)NCCn1ccc2ncnc(Nc3ccc(Oc4cccc5sncc45)c(Cl)c3)c21 [Example 54, 1-[2-(4-{[4-(1,2-benzoisothiazol-4-yloxy)-3-chlorophenyl]amino}-5H-pyrrolo[3,2-d]pyrimidin-5-yl)ethyl]-3-(1-methylethyl)urea methanesulfonate] | < 100 nM |
